From publication PMC7679387, “VZHE-039, a novel antisickling agent that prevents erythrocyte sickling under both hypoxic and anoxic conditions” (Scientific Reports, 2020)
“Also recorded” adds a separate entry of the source. Like-named read-outs stand apart in the source and are kept apart here.

Experiments:
SS cells [1] = tested on: SS cells; design: method as in PMID 30289405; settings: previously observed, cited from earlier work
Hb [2] = biological target: T1, Hb (Homo sapiens, UniProt P69905); design: method as in PMID 30289405; settings: previously observed, cited from earlier work
T1 construct: whole blood suspensions from subjects with homozygous SCD (Hct of 20%); from tissue; host or cells: whole blood / red blood cells of patients with homozygous SS sickle cell disease; lysate for HPLC and OEC
T1 sequence (P69905 2-142): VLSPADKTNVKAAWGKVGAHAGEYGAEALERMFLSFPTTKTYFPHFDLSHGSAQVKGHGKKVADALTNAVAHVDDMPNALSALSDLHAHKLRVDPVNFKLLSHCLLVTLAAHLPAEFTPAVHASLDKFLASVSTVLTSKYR
T1 sequence (P68871 with tags, fused parts or gaps E7V partner): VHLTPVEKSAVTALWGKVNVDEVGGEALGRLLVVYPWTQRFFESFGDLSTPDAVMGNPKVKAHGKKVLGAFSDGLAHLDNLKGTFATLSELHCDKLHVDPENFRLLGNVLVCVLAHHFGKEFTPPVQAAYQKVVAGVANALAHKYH

SS cells [3] = assay: Antisickling activity under anoxia (100% N2); assay type: cell-based, human; settings: 2 mM, 100% N2 gas, 30 min
Description: Therefore, another objective in the targeted design of VZHE-039 was to complement its O2-dependent antisickling activity—common to this class of aromatic aldehydes—with an improved O2-independent antisickling activity through proximity-enhanced auxiliary interactions with the αF-helix. Findings from the VZHE-039 crystallographic studies indicate that we achieved the structural objective of enhanced interactions between the methylhydroxy substituent and the αF-helix. We further asked whether these enhanced interactions would translate to an improvement in the O2-independent antisickling activity—as hypothesized. We therefore explored the potential O2-independent activity of VZHE-039, by testing its antisickling properties under complete deoxygenated/anoxic conditions (i.e., 100% N2). […] For internal control purposes, aliquots from samples used for testing for antisickling studies at 2.5% O2 (see above) were also used for testing the antisickling effect of these compounds under 100% N2 gas, therefore, helping elucidate the antisickling effects due to O2-dependent activity of the compounds. Since this experimental design utilized aliquots of the same samples under different gas conditions, it ensured that the assay was free of any potential errors associated with variability in hematocrit and accuracy in drug concentrations.
We conducted two studies to test the antisickling property of VZHE-039 under anoxia to establish the secondary mechanism of action. In the first study, we conducted antisickling studies as described above and also previously reported (2.5% O2)[33], using 2 mM concentrations of VZHE-039, and the controls vanillin, TD-7 and Voxelotor. After 1 h, aliquot samples were fixed with 2% glutaraldehyde without exposure to air. Then the incubation chamber was opened and exposed to air for 15 min to ensure complete re-oxygenation and reversal of the sickled cells to normal round cells. Reversal was confirmed by microscopy. The incubation chamber was then closed, and the assay was repeated under 100% nitrogen gas for 30 min, at which point aliquots were obtained and fixed. Aliquot samples were then subjected to microscopic morphological analysis of bright field images as previously described. Resulting sickled cells (percentages) were compared across samples, and between aliquots of the same samples that had been obtained either under 2.5% oxygen or 100% nitrogen.

HbA = biological target: T2, HbA (Homo sapiens, UniProt P69905); assay: In vitro time-dependent Hb oxygen equilibrium study using normal whole blood (tonometry); assay type: cell-based; settings: 2 mM, Hct 30%, 37 °C
T2 construct: fresh normal adult whole blood (Hct of 30%); from tissue; host or cells: normal adult whole blood (red blood cells)
T2 sequence (P69905 2-142 limits assumed): as the sequence (P69905 2-142) above
T2 sequence (P68871 2-147 partner limits assumed): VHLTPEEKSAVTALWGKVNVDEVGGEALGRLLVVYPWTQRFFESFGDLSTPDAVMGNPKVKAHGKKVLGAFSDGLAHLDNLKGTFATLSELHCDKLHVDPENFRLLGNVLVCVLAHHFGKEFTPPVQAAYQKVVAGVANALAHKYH
Description: The antisickling activity of aromatic aldehydes is dependent on Schiff-base interaction between the aldehyde moiety and the Hb αVal1 amines (Schiff-base adduct) and the increase in the protein affinity for oxygen[30]–[40]. […] To overcome this pharmacologic limitation, Tucaresol and Voxelotor, two potent antisickling agents utilized a ortho-hydroxyl moiety (relative to the aldehyde group) on the benzaldehyde ring to form intramolecular hydrogen-bond interaction with the aldehyde group to form hemiacetal-like moiety, which led to significant reduction in oxidative metabolism of the aldehyde[28],[50]. […] VZHE-039, however, incorporates this ortho-hydroxyl moiety on the benzene ring, which is expected to increase its oxidative metabolic stability. This was tested by incubating 2 mM of VZHE-039 (with vanillin and TD-7 as controls) with fresh normal adult whole blood (Hct of 30%) at 37 °C as a surrogate measure of oxidative metabolism. At defined time points (1, 4, 8, 12 and 24 h), aliquot samples were drawn, and subsequently analyzed for their P50-shifts relative to the initial P50 value, using three-point tonometry. In parallel, an untreated control sample was also assessed to control for any time-dependent, but drug-independent changes in P50 values. […] These findings confirm the importance of the ortho-hydroxyl group in aromatic aldehydes in preventing or reducing enzymatic metabolism of aldehyde in RBCs.
Normal whole blood samples (hematocrit 30%) in the absence (control) or presence of 2 mM concentration VZHE-039 (solubilized in DMSO) were incubated at 37 °C for 24 h with shaking (at 140 rpm). At 1, 4, 8, 12 and 24 h time intervals, aliquots of this mixture were removed and then subjected to OEC analysis using tonometry as previously described. Vanillin and TD-7 were used as positive controls, while DMSO was tested as negative control. Briefly, the compound-treated blood samples were incubated in IL 237 tonometers (Instrumentation Laboratories, Inc. Lexington, MA) for approximately 10 min at 37 °C, and allowed to equilibrate at oxygen tensions 6, 20, and 40 mmHg. The samples were then aspirated into an ABL 700 Automated Blood Gas Analyzer (Radiometer) to determine the pH, partial pressure of CO2 (pCO2), partial pressure of oxygen (pO2), and Hb oxygen saturation values (SO2). The measured values of pO2 (mmHg) and SO2 at each pO2 value were then subjected to a non-linear regression analysis using the program Scientist (Micromath, Salt Lake City, UT) to estimate P50 as previously reported.

HbS [4] = biological target: T3, HbS (Homo sapiens, UniProt P69905); design: method as in PMID 30289405; settings: previously observed, cited from earlier work
T3 construct: whole blood suspensions from subjects with homozygous SCD (Hct of 20%); from tissue; host or cells: whole blood / red blood cells of patients with homozygous SS sickle cell disease; lysate for HPLC and OEC
T3 sequence (P69905 2-142): as the sequence (P69905 2-142) above
T3 sequence (P68871 with tags, fused parts or gaps E7V partner): as the sequence (P68871 with tags, fused parts or gaps E7V partner) above

[5] = experimental animals and humans; cited from earlier work
[6] = cited from earlier work
Hb [7] = biological target: T1, Hb; assay: Oxygen equilibrium (P50 shift) of lysates from SS cells, Hemox Analyzer; assay type: cell-based; settings: 20% hematocrit
Experimental: (§1) For our previously studied compounds (e.g., INN-312, TD-7, SAJ-310, INN-298) that incorporate methoxyPy substitution to vanillin analogs, we observed a significant increase in functional and biological activity as a result of increased protein interactions[31],[33],[35],[36]. We therefore expected similar effects for VZHE-039, which we tested by following VZHE-039 activity (measured by Hb adduct formation, P50-shift and RBC sickling inhibition) using SS blood. Briefly, we incubated 0.5, 1, and 2 mM concentrations of VZHE-039 with whole blood suspensions from subjects with homozygous SCD (Hct of 20%) under hypoxic conditions (2.5% O2/97.5% N2) at 37 °C for 2 h for expected peak adduct. Aliquot blood samples were drawn into a fixative (2% glutaraldehyde solution), and sickling was assessed by microscopy[31],[33],[35],[36]. Aliquot samples were also subjected to cation-exchange HPLC analyses to assess the degree of Hb modification to the high-affinity adduct form (Hb adduct formation), as well as standard O2 equilibrium curves (OEC) to assess P50-shifts using hemox analyzer[31],[33],[35],[36]. […] The improved potency of Voxelotor has been attributed to reduced binding stoichiometry, i.e. while Voxelotor binds Hb at a 1:1 ratio, VZHE-039 binds Hb at a 2:1 ratio. […] This observation, as will be discussed later is likely due to a meaningful contribution from the novel O2-independent antisickling activity as result of the strong contact with the αF-helix.
(§2) The effect of VZHE-039 on RBC sickling, Hb modification, and Hb oxygen equilibrium was studied utilizing samples from consented individuals with homozygous SCD following previous procedure. Briefly, blood suspended in Hemox buffer and supplemented with glucose and bovine serum albumin, to a final hematocrit of 20% were incubated under air in the absence or presence of 0.5 mM, 1 mM and 2 mM VZHE-039 at 37 °C for 1 h. This was followed by incubating the suspensions under hypoxic conditions (2.5% O2/97.5% N2) at 37 °C for 2 h. Aliquot samples were obtained and fixed with 2% glutaraldehyde solution without exposure to air, and then subjected to microscopic morphological analysis of bright field images (at × 40 magnification) of single layer cells on an Olympus BX40 microscope fitted with an Infinity 2 camera (Olympus), and the coupled Image Capture software. Leftover samples were washed in phosphate-buffer saline, and hemolyzed in hypotonic lysis buffer for subsequent Hb-modification and oxygen equilibrium analyses.
For the oxygen equilibrium studies, 100 μL aliquot samples from the above clarified lysate were added to 4 mL of 0.1 M potassium phosphate buffer, pH 7.0, in cuvettes and subjected to hemoximetry analysis using a Hemox Analyzer (TCS Scientific Corp.) to determine the P50 values.

HbS [8] = biological target: T3, HbS; assay: Hb modification (HbS adduct formation) by cation-exchange HPLC of lysates from SS cells; assay type: cell-based; settings: for Hb Modification: SS cells, 20% hematocrit, HPLC of hemolysates
Experimental: as §1, §2
Finally, for the Hb adduct formation studies, the above clarified lysates were subjected to cation-exchange HPLC (Hitachi D-7000 Series, Hitachi Instruments, Inc., San Jose, CA), using a weak cation-exchange column (Poly CAT A: 30 mm × 4.6 mm, Poly LC, Inc., Columbia, MD). A commercial standard consisting of approximately equal amounts of composite HbF, HbA, HbS and HbC (Helena Laboratories, Beaumont, TX), was utilized as the reference for isotypes. The areas of new peaks, representing HbS adducts, were obtained, calculated as percentage fractions of total Hb area, and reported as levels of modified Hb.

SS cells [9] = assay: Antisickling study with SS cells under hypoxia (2.5% O2); assay type: cell-based, human; settings: Homo sapiens, 20% hematocrit, […] O2, 37 °C, read-out: Sickling Inhibition
Experimental: as §1, §2

SS RBCs = assay: pO2-dependent degree of sickling in Hemox Analyzer; assay type: cell-based, human; settings: 2 mM, Hct 20%
Experimental: In a confirmatory study, a pO2 dependent degree of sickling of VZHE-039 at 1 and 2 mM doses, with Voxelotor as a control was performed using a Hemox analyzer. […] Oksenberg et al.reported similar observations with Voxelotor[28], where the compound lost its potent antisickling activity at low pO2 values.
The second study established pO2 dependent degree of sickling of VZHE-039, with Voxelotor as a control. Concurrently, blood samples, hematocrit 20%, were incubated without any drug (control) or with 1, or 2 mM VZHE-039 at 37 °C for 1 h. A second control sample was incubated with 2 mM Voxelotor. At conclusion, 100 uL aliquots of each suspension were mixed with 2.5 mL Hemox buffer (pH 7.4, supplemented with antifoam), and transferred into the sample chamber of the Hemox Analyzer. Compressed air was then flushed through the sample to ensure complete oxygenation (at 150 mmHg). Nitrogen gas was then introduced into the sample chamber, and 50 uL aliquots were obtained and fixed at defined pO2 values. At conclusion, all fixed samples were subjected to microscopic analysis for their degree of sickling, and results were plotted using Prism Graph Pad software. The experiments were conducted in three replicates on different days, and mean and standard deviation values are reported.

COc1ccc(OCc2cccc(CO)n2)c(C=O)c1 [TD-7]
RBC sickling inhibition (SS cells [1]; 0.5 mM): 16% | RBC sickling inhibition (SS cells [1]; 1 mM): 29% | RBC sickling inhibition (SS cells [1]; 2 mM): 85% | P50-shift (Hb [2]; 0.5 mM): 10% | P50-shift (Hb [2]; 1 mM): 28% | P50-shift (Hb [2]; 2 mM): 48% | Antisickling effect under anoxia (in words) (SS cells [3]): showed some antisickling effect under anoxia, it was significantly less potent than VZHE-039 | Time of maximum effect (P50-shift) (HbA): 1 h | Reduction in activity (P50-shift) at 24 h (HbA; relative to maximum effect): ~ 45% | Hb Modification (HbS [4]; 0.5 mM): 26% | Hb Modification (HbS [4]; 1 mM): 45% | Hb Modification (HbS [4]; 2 mM): 74%

O=Cc1c(O)cccc1OCc1ccc(C(=O)O)cc1 [Tucaresol, 4[2-formyl-3-hydroxyphenoxymethyl] benzoic acid]
Half-life [5]: > 12 h

COc1cc(C=O)ccc1O [Vanillin, vanillin]
Antisickling effect under anoxia (in words) (SS cells [3]): showed no effect under anoxic conditions | Time course of P50-shift (in words) (HbA; 1-24 h): did not have any effects beyond 4 h

CC(C)n1nccc1-c1ncccc1COc1cccc(O)c1C=O [Voxelotor, reference compound]
Partitioning into the RBC compartment [6]: 90% | P50 Shift (ΔP50) (Hb [7]; 0.5 mM): 41% | P50 Shift (ΔP50) (Hb [7]; 1 mM): 80% | Hb Modification (HbS [8]; 0.5 mM): 55% | Hb Modification (HbS [8]; 1 mM): 100% | Hb modification (in words) (HbS [8]; 2 mM, samples of the anoxia study): complete Hb modification to the high-O2-affinity form | Half-life [5]: > 12 h | inhibition at 500 µM (SS cells [9]; 0.5 mM): 56% | inhibition at 1000 µM (SS cells [9]; 1 mM): 98% | pO2-dependent sickling inhibition (in words) (SS RBCs): completely prevent sickling at high pO2; also recorded: lost this capability at low pO2 | Antisickling effect under anoxia (in words) (SS cells [3]): lost its inherent antisickling effects remarkably under anoxic conditions
